Source: patent publication US20060132952A1, “Enhanced data storage and retrieval devices and systems and methods for utilizing same” (priority 2002, published 2006)

Key:
[1] = Phenyl salicylate solubility in conditioned (neon lamp) vs unconditioned acetone at room temperature (22° C.); assay type: physicochemical; conditions: equilibrated about 20 hours
Protocol: Acetone (about 1 ml) was pipetted into small glass test tubes and stoppers placed in the tube. Tubes were placed under a neon lam; (about 8 m/cm^2) in an otherwise dark room for about 1-5 hours at about 28° C. ambient temperature. Tubes were also placed simultaneously in an incubator at 28° C. for about 1.5 hours.
Phenyl solicylate (about 3.50 grams) was added to each tube leaving a layer undissolved on the bottom of each tube. The solutions were allowed to equilibrate (about 20 hours). Solution was filtered over the crystals and 0.500 ml pipetted into fresh tubes. After the acetone evaporated, dry weights of phenyl solicylate per ml dissolved in conditioned and unconditioned acetone were determined.

[2] = Sucrose solubility in conditioned (sodium lamp) vs control water at room temperature (22° C.); assay type: physicochemical
Protocol: Beaker “II” was placed under another sodium lamp 12 as like Beaker “KK”; and Beaker “JJ” was placed in the same incubator as Beaker “LL”. […] Specifically, Beaker “GG” was placed under another sodium lamp 12 as like Beaker “KK” and Beaker “II”; and Becker “HH” was placed into the same incubator as Beaker “LL” and “II”.

Row | Structure (SMILES) | Average amount dissolved in unconditioned acetone ([1]; acetone kept in incubator at 28° C.) [g/mL] | Average amount dissolved in conditioned acetone ([1]; acetone under neon lamp) [g/mL] | Weight (dry sucrose weight per 100 ml solution) ([2]; GG, water under sodium lamp one hour, 23.5° C.) [g/100 ml] | Weight (dry sucrose weight per 100 ml solution) ([2]; HH, control water 1 hour, 23° C.) [g/100 ml] | Weight (dry sucrose weight per 100 ml solution) ([2]; II, water under sodium lamp two hours, 23.5° C.) [g/100 ml] | Weight (dry sucrose weight per 100 ml solution) ([2]; JJ, control water 2 hours, 23.5° C.) [g/100 ml] | Weight (dry sucrose weight per 100 ml solution) ([2]; KK, water under Na lamp three hours, 23.5° C.) [g/100 ml] | Weight (dry sucrose weight per 100 ml solution) ([2]; LL, control water 3 hours, 23.5° C.) [g/100 ml] | more sucrose dissolved by conditioned water than by untreated control water ([2]; two hours exposure of water to sodium lamp)
1 | O=C(Oc1ccccc1)c1ccccc1O [phenyl salicylate] | 0.68 | 0.78 |  |  |  |  |  |  | 
2 | OC[C@H]1O[C@@](CO)(O[C@H]2O[C@H](CO)[C@@H](O)[C@H](O)[C@H]2O)[C@@H](O)[C@@H]1O [Sucrose] |  |  | 49 | 49 | 47 | 44 | 46 | 49 | about 7%
